From ChEMBL document CHEMBL1140651, “N-(6,7-dichloro-2,3-dioxo-1,2,3,4-tetrahydroquinoxalin-5-yl)-N-alkylsulfonamides as peripherally restricted N-methyl-D-aspartate receptor antagonists for the treatment of pain” (Bioorg Med Chem Lett, 2007)
In brackets after ≈: the same amount, converted by molar mass. Several values for one entry are separate records, joined by “and”; a condition that tells them apart may be missing. Identical values can stand only once.

Assays:
[1] = molecular target: Glutamate receptor ionotropic, NMDA 1 (Homo sapiens, UniProt Q05586); assay: Antagonist activity at human NMDA NR1 receptor; assay type: functional
Liver microsomes [2] = assay: Metabolic stability in rat liver microsome; assay type: ADME
[3] = Permeability from apical to basolateral side of the Caco-2 cell membrane; assay type: ADME, cell-based; details: human, read-out: permeability
[4] = AUC in Sprague-Dawley rat at 5 mg/kg, po; assay type: ADME, organism-based; parameters: dose 5 mg/kg, route oral; details: plasma
[5] = Solubility of the compound; assay type: physicochemical
Liver microsomes [6] = assay: Metabolic stability in human liver microsome; assay type: ADME
[7] = (§1) Bioavailability in Sprague-Dawley rat at 5 mg/kg, po; assay type: ADME, organism-based; details: Sprague-Dawley, in vivo
Rattus norvegicus [8] = assay: Anticonvulsant activity in Swiss Webster mouse at 100 mg/kg by MES assay; assay type: functional
Caco-2 = assay: Ratio of permeability from basolateral to apical over apical to basolateral side of the Caco-2 cell membrane; assay type: ADME, cell-based; details: human
Rattus norvegicus [9] = assay: […] in […] at 300 mg/kg, ip by MES assay; assay type: functional; details: route intraperitoneal
Rattus norvegicus [10] = assay: Analgesic activity in rat formalin pain model assessed as reduction in pain response at 50 mg/kg, ip; assay type: functional; parameters: scale not given: the % may be the effect or the level left; details: route intraperitoneal
Rattus norvegicus [11] = assay: as §1; assay type: ADME, organism-based; details: in vivo
Rattus norvegicus [12] = assay: Analgesic activity in rat formalin pain model assessed as reduction in pain response at 50 mg/kg, po; assay type: functional; parameters: scale not given: the % may be the effect or the level left

IC50 [1]	Activity (Liver microsomes [2])	Papp A→B [3] [×10⁻⁶ cm/s]	AUC [4] [ng·h/mL]	solubility [5] [µg/mL]	Activity (Liver microsomes [6])	bioavailability [7] [%]	Ratio (Caco-2)	F (Rattus norvegicus [11])	SMILES	Activity (Rattus norvegicus [8]) [%]	Activity (Rattus norvegicus [9]) [%]	Activity (Rattus norvegicus [10]) [%]	Activity (Rattus norvegicus [12]) [%]
0.049 µM	Active	0.01	632	78 (≈ 200 µM)	Active	47			CCc1cc2[nH]c(=O)c(=O)[nH]c2c(N(CCCOC)S(C)(=O)=O)c1Cl				
0.002 µM	Active		393	76 (≈ 199 µM)	Active				CS(=O)(=O)N(CC(=O)O)c1c(Cl)c(Cl)cc2[nH]c(=O)c(=O)[nH]c12	100			
0.077 µM	Active	0.14	1190	72 (≈ 199 µM)	Active	57	30.6		COCCN(c1c(Cl)c(C)cc2[nH]c(=O)c(=O)[nH]c12)S(C)(=O)=O				
0.209 µM	Active	10	2260	79 (≈ 199 µM)	Active	78	1.38		CCOCCN(c1c(Cl)c(Cl)cc2[nH]c(=O)c(=O)[nH]c12)S(C)(=O)=O				
0.728 µM	Active	0.01		72 (≈ 199 µM)	Active		0.1		COCCCN(c1cc(Cl)cc2[nH]c(=O)c(=O)[nH]c12)S(C)(=O)=O				
0.041 µM	Active		136	76 (≈ 199 µM)	Active	1			CS(=O)(=O)N(CCCO)c1c(Cl)c(Cl)cc2[nH]c(=O)c(=O)[nH]c12				
0.045 µM	Active	1.75	589	23 (≈ 53.2 µM)	Active	10	4.07		CS(=O)(=O)N(Cc1cccc(F)c1)c1c(Cl)c(Cl)cc2[nH]c(=O)c(=O)[nH]c12				
0.04 µM	Active		680	76 (≈ 199 µM)	Active	1			CC(O)CN(c1c(Cl)c(Cl)cc2[nH]c(=O)c(=O)[nH]c12)S(C)(=O)=O (stereo unspecified)				
0.059 µM	Active	1.52	922	16 (≈ 39.2 µM)	Active	31	7.55		CS(=O)(=O)N(CC1CCCO1)c1c(Cl)c(Cl)cc2[nH]c(=O)c(=O)[nH]c12 (stereo unspecified)				
0.001 µM	Active		155	72 (≈ 199 µM)	Active	5			Cc1cc2[nH]c(=O)c(=O)[nH]c2c(N(CC(=O)O)S(C)(=O)=O)c1Cl	62.5			
0.038 µM	Active	0.01	1080	76 (≈ 199 µM)	Active	33			COCCN(c1c(Cl)c(Cl)cc2[nH]c(=O)c(=O)[nH]c12)S(C)(=O)=O				
0.022 µM and 0.011 µM and 0.018 µM	Active	0.41		56 (≈ 133 µM)	Active		15		CS(=O)(=O)N(CCC(F)(F)F)c1c(Cl)c(Cl)cc2[nH]c(=O)c(=O)[nH]c12		0	40	
	Active	2.06		79 (≈ 199 µM)	Active	41	6.05	43% and 39%	COCCCN(c1c(Cl)c(Cl)cc2[nH]c(=O)c(=O)[nH]c12)S(C)(=O)=O		20		
0.074 µM	Active	0.01	2620	72 (≈ 199 µM)	Active	100			COCCN(c1c(C)c(Cl)cc2[nH]c(=O)c(=O)[nH]c12)S(C)(=O)=O				
0.109 µM and 0.02 µM and 0.027 µM	Active		3920		Active	32			CCS(=O)(=O)N(CCC(F)(F)F)c1c(Cl)c(Cl)cc2[nH]c(=O)c(=O)[nH]c12		0	60	30
0.002 µM	Active		1500		Active	7			Cc1c(Cl)cc2[nH]c(=O)c(=O)[nH]c2c1N(CC(=O)O)S(C)(=O)=O	87.5			
0.012 µM	Active	3.43	152	40 (≈ 90 µM)	Active	8	4.67		COc1cccc(CN(c2c(Cl)c(Cl)cc3[nH]c(=O)c(=O)[nH]c23)S(C)(=O)=O)c1				
0.039 µM	Active	< 0.01	1490	25 (≈ 59.2 µM)	Active	53			CS(=O)(=O)N(CC1CCCCO1)c1c(Cl)c(Cl)cc2[nH]c(=O)c(=O)[nH]c12 (stereo unspecified)				
0.004 µM	Active		791	70 (≈ 201 µM)	Active	9			Cc1cc2[nH]c(=O)c(=O)[nH]c2c(N(CCO)S(C)(=O)=O)c1Cl	0			
0.166 µM	Active	0.97	840	88 (≈ 200 µM)	Active	90	12.4		CCOCCOCCN(c1c(Cl)c(Cl)cc2[nH]c(=O)c(=O)[nH]c12)S(C)(=O)=O				
0.058 µM	Active		183	72 (≈ 199 µM)	Active	1			CCc1c(Cl)cc2[nH]c(=O)c(=O)[nH]c2c1N(CCO)S(C)(=O)=O	0			
0.019 µM	Active	0.44	1270	82 (≈ 200 µM)	Active	33	28.4		CCOCCCN(c1c(Cl)c(Cl)cc2[nH]c(=O)c(=O)[nH]c12)S(C)(=O)=O				
0.014 µM	Active		605	70 (≈ 201 µM)	Active	4			Cc1c(Cl)cc2[nH]c(=O)c(=O)[nH]c2c1N(CCO)S(C)(=O)=O	0			
